Patent publication US10882837B2, “Amide compounds and use thereof” (ALPHALA CO., LTD., priority 2017, dated 2021)

Assays:
glucagon receptor (GCGR) = biological target: T1, glucagon receptor (GCGR) (Homo sapiens, UniProt P47871); test: Glucagon cAMP inhibition assay (Cisbio cAMP Dynamic 2 HTRF); assay type: cell-based; conditions: GCGR overexpressed CHO-K1 cells or human primary hepatocytes (not specified); glucagon at EC50
T1 construct: expressed in transfected cells; host or cells: CHO-K1
Experimental: Glucagon eAMP Inhibition Assay
Downstream secondary messenger eAMP induced by glucagon was detected by Cisbio cAMP Dynamic 2 kit. Testing compounds were each prepared as a dimethyl sulfoxide (DMSO) solution at the concentration of 10 mM. To evaluate the potency of compounds in inhibiting the cAMP production, glucagon receptor (GCGR) overexpressed CHO-K1 cells or human primary hepatocytes were treated with compounds with a serial dilution. The cells were re-suspended in Hank's Balanced Salt solution (HBSS) contained 0.1% (w/v) bovine serum albumin and 800 nM 3-isobutyl-1-methylxanthine (IBMX) and seeded into low volume, 384 wells white plate. The diluted compounds were then added into the plate for 30 minutes pre-incubation where the final DMSO concentration was 1%. The cells were stimulated with glucagon at the concentration equaled to EC50 (an indicium of the concentration of a drag that gives half-maximal response) for 30 minutes at room temperature. After incubation, lysis buffer contain cAMP antibody and fluorescence acceptor were added into each well for additional 60 minutes incubation. Results were recorded by Molecular Devices SpectraMax Paradigm with the HTRF Detection Cartridges and the IC50 value of each compound in inhibiting the cAMP production was calculated with non-linear regression based on the amount of cAMP production.

GCGR = GCGR (Homo sapiens, UniProt P47871); test: I125-glucagon binding assay (competition, GCGR membrane fractions); design: expressed in transfected cells; host or cells: CHO-K1; inhibition: dose or concentration left out as unconfirmed; conditions: for IC50: competition with I125-glucagon 0.0625 nM, membrane fractions from GCGR overexpressed CHO-K1 cells; for inhibition: read-out: percentage of inhibition (number in parenthesis in IC50 binding column)
Chain of GCGR (P47871 26-477, species assumed): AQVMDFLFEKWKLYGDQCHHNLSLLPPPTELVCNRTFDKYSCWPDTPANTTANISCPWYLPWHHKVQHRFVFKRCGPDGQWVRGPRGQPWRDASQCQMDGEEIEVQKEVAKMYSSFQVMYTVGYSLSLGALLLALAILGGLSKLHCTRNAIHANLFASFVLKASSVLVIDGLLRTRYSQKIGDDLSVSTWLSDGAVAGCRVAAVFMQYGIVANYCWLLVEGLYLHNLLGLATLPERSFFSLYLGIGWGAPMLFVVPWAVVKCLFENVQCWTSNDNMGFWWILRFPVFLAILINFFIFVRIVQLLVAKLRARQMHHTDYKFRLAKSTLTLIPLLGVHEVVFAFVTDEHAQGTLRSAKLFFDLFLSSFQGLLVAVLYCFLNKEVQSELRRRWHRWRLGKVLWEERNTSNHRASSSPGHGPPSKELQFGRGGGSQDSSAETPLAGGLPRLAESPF
Experimental: I^125-Glucagon Binding Assay
The binding affinity of each compound was evaluated by a competition assay with I^125-glucagon. GCGR membrane fractions were obtained from GCGR overexpressed CHO-K1 cells as a stock of 1 mg/ml concentration. To evaluate the IC50 of compounds binding to GCGR, GCGR membrane fractions were treated with compounds with a serial dilution. The membrane fractions were diluted to 7.5 microgram per well in 70 microliter assay buffer contained 50 mM Tris pH 7.4 and 0.5% (w/v) bovine serum albumin and added into 96 wells plate. The membrane fractions were then mixed with 10 microliter diluted compounds. After 5 minutes pre-incubation, 20 microliter I^125 labeled glucagon (Perkin Elmer) was added into each well at the final concentration of 0.0625 nM. The assay mixtures were incubated at 25° C. for 30 minutes and then transferred onto the Millipore Multiscreen GF/B Plate coated with 0.5% (w/v) Polyethyleneimine. The filter plate was washed with wash buffer contained 50 mM Tris pH 7.4 for 2 times, 300 microliter each time. The residual isotope was detected by Hidex CHAMELEON V micro-beta counter and the IC50 value of each compound binding to GCGR was calculated with non-linear regression.

T1 sequence (P47871 26-477, species assumed): as above

SMILES	IC50 (glucagon receptor (GCGR))	IC50 (GCGR)	inhibition (GCGR)
CC(C)C(Nc1ccc(-c2nnc(-c3ccccc3)o2)cc1)c1ccc(C(=O)NCCC(=O)O)cc1 (centres unmarked) [Compound 3-2, 3-(4-(2-methyl-1-((4-(5-phenyl-1,3,4-oxadiazol-2-yl)phenyl)amino)propyl)benzamido)propanoic acid]	2900 nM	17 nM	–
CC(C)[C@H](Nc1ccc(C(=O)NCCC(=O)O)cc1)c1ccc(-c2nc3ccccc3o2)cc1 [Compound 4-7, (S)-3-(4-((1-(4-(benzo[d]oxazol-2-yl)phenyl)-2-methylpropyl)amino)benzamido)propanoic acid]	651 nM	20 nM	–
CCCC[C@@H](Nc1ccc(C(=O)NCCC(=O)OCC)cc1)c1ccc(-c2noc(-c3ccccn3)n2)cc1 [Compound 2-39, ethyl (R)-3-(4-((1-(4-(5-(pyridin-2-yl)-1,2,4-oxadiazol-3-yl)phenyl)pentyl)amino)benzamido)propanoate]	672 nM	> 30000 nM	–
CC(C)CC(Nc1ccc(C(=O)NCCC(=O)O)cc1)c1ccc(-c2nnc(C(C)(C)C)o2)cc1 (centres unmarked) [Compound 1-12]	6710 nM	455 nM	–
CCC(C)C(Nc1ccc(C(=O)NCCC(=O)O)cc1)c1ccc(-c2nnc(-c3ccccc3)o2)cc1 (centres unmarked) [Compound 1-11, 3-(4-((2-Methyl-1-(4-(5-phenyl-1,3,4-oxadiazol-2-yl)phenyl)butyl)amino)benzamido)propanoic acid]	2540 nM	72 nM	–
CCCC[C@H](Nc1ccc(C(=O)NCCC(=O)O)cc1)c1ccc(-c2nc3ccccc3o2)cc1 [Compound 4-16, (S)-3-(4-((1-(4-(benzo[d]oxazol-2-yl)phenyl)pentyl)amino)benzamido)propanoic acid]	785 nM	36 nM	–
COC(=O)CCNC(=O)c1ccc(N[C@H](c2ccc(-c3nnc(-c4ccccc4)o3)cc2)C(C)C)cc1 [Compound 1-63, methyl (S)-3-(4-((2-methyl-1-(4-(5-phenyl-1,3,4-oxadiazol-2-yl)phenyl)propyl)amino)benzamido)propanoate]	28 nM	1530 nM	–
CCC(C)C(Nc1ccc(-c2nnc(-c3ccc(F)cc3)o2)cc1)c1ccc(C(=O)NCCC(=O)O)cc1 (centres unmarked) [Compound 3-8, 3-(4-(1-((4-(5-(4-fluorophenyl)-1,3,4-oxadiazol-2-yl)phenyl)amino)-2-methylbutyl)benzamido)propanoic acid]	1030 nM	74 nM	–
CCOC(=O)CCNC(=O)c1ccc(N[C@H](c2ccc(-c3nc4ccccc4o3)cc2)C(C)CC)cc1 (stereo partly drawn) [Compound 4-19, Ethyl 3-(4-(((1S)-1-(4-(benzo[d]oxazol-2-yl)phenyl)-2-methylbutyl)amino)benzamido)propanoate]	52 nM	446 nM	–
CC(C)C(Nc1ccc(C(=O)NCCC(=O)O)cc1)c1ccc(-c2nnc(C(C)(C)C)o2)cc1 (centres unmarked) [Compound 1-24, 3-(4-((1-(4-(5-(tert-butyl)-1,3,4-oxadiazol-2-yl)phenyl)-2-methylpropyl)amino)benzamido)propanoic acid]	> 30000 nM	314 nM	–
CCCC[C@@H](Nc1ccc(C(=O)NCCC(=O)O)cc1)c1ccc(-c2nc3ccccc3o2)cc1 [Compound 4-10]	1500 nM	150 nM	–
CCOC(=O)CCNC(=O)c1ccc(C(Oc2ccc(-c3nc4ccccc4o3)cc2)C(C)C)cc1 (centres unmarked) [Compound 7-1, Ethyl 3-(4-(1-(4-(benzo[d]oxazol-2-yl)phenoxy)-2-methylpropyl)benzamido)propanoate]	487 nM	> 30000 nM	–
CCCCC(Nc1ccc(C(=O)NCCC(=O)OCC)cc1)c1ccc(-c2nnc(C(F)(F)F)o2)cc1 (centres unmarked) [Compound 1-33, ethyl 3-(4-((1-(4-(5-(trifluoromethyl)-1,3,4-oxadiazol-2-yl)phenyl)pentyl)amino)benzamido)propanoate]	142 nM	> 30000 nM	–
CCOC(=O)CCNC(=O)c1ccc(OC(c2ccc(-c3nc4ccccc4s3)cc2)C(C)C)cc1 (centres unmarked) [Compound 6-1, Ethyl 3-(4-(1-(4-(benzo[d]thiazol-2-yl)phenyl)-2-methylpropoxy)benzamido)propanoate]	85.6 nM	> 30000 nM	–
CC(C)CC(Nc1ccc(C(=O)NCCC(=O)O)cc1)c1ccc(-c2noc(-c3ccccc3)n2)cc1 (centres unmarked) [Compound 2-10, 3-(4-((3-methyl-1-(4-(5-phenyl-1,2,4-oxadiazol-3-yl)phenyl)butyl)amino)benzamido)propanoic acid]	959 nM	124 nM	–
CCOC(=O)CCNC(=O)c1ccc(N[C@@H](CC(C)C)c2ccc(-c3noc(-c4ccccc4)n3)cc2)cc1 [Compound 2-41, ethyl (S)-3-(4-((3-methyl-1-(4-(5-phenyl-1,2,4-oxadiazol-3-yl)phenyl)butyl)amino)benzamido)propanoate]	71.1 nM	389 nM	–
CCOC(=O)CCNC(=O)c1ccc(NC(c2ccc(-c3noc(-c4ccc(F)cc4)n3)cc2)C(C)C)cc1 (centres unmarked) [Compound 2-24, ethyl 3-(4-((1-(4-(5-(4-fluorophenyl)-1,2,4-oxadiazol-3-yl)phenyl)-2-methylpropyl)amino)benzamido)propanoate]	248 nM	2680 nM	35%
CCOC(=O)CCNC(=O)c1ccc(NC(c2ccc(-c3nnc(C(C)(C)C)o3)cc2)C(C)C)cc1 (centres unmarked) [Compound 1-23]	180 nM	18700 nM	–
CCCCC(Nc1ccc(C(=O)NCCC(=O)OCC)cc1)c1ccc(-c2noc(-c3ccccc3)n2)cc1 (centres unmarked) [Compound 2-7, ethyl 3-(4-((1-(4-(5-phenyl-1,2,4-oxadiazol-3-yl)phenyl)pentyl)amino)benzamido)propanoate]	49 nM	1210 nM	27%
CCOC(=O)CCNC(=O)c1ccc(N[C@@H](c2ccc(-c3noc(-c4ccccc4)n3)cc2)C(C)CC)cc1 (stereo partly drawn) [Compound 2-20, ethyl 3-(4-(((1R)-2-methyl-1-(4-(5-phenyl-1,2,4-oxadiazol-3-yl)phenyl)butyl)amino)benzamido)propanoate]	338 nM	217 nM	–
CCCC[C@@H](Nc1ccc(C(=O)NCCC(=O)O)cc1)c1ccc(-c2noc(-c3ccccn3)n2)cc1 [Compound 2-40, (R)-3-(4-((1-(4-(5-(pyridin-2-yl)-1,2,4-oxadiazol-3-yl)phenyl)pentyl)amino)benzamido)propanoic acid]	138 nM	1020 nM	–
CCOC(=O)CCNC(=O)c1ccc(NC(c2ccc(-c3noc(C(C)(C)C)n3)cc2)C(C)C)cc1 (centres unmarked) [Compound 2-1, ethyl 3-(4-((1-(4-(5-(tert-butyl)-1,2,4-oxadiazol-3-yl)phenyl)-2-methylpropyl)amino)benzamido)propanoate]	240 nM	2900 nM	–
CCOC(=O)CCNC(=O)c1ccc(N[C@H](CC(C)C)c2ccc(-c3noc(-c4ccccc4)n3)cc2)cc1 [Compound 2-42, ethyl (R)-3-(4-((3-methyl-1-(4-(5-phenyl-1,2,4-oxadiazol-3-yl)phenyl)butyl)amino)benzamido)propanoate]	248 nM	42 nM	–
CC(C)[C@@H](Nc1ccc(C(=O)NCCC(=O)O)cc1)c1ccc(-c2noc(-c3ccccc3)n2)cc1 [Compound 2-23, (R)-3-(4-((2-methyl-1-(4-(5-phenyl-1,2,4-oxadiazol-3-yl)phenyl)propyl)amino)benzamido)propanoic acid]	1000 nM	537 nM	–
